Data reported in patent US20170190705A1, “Compositions and Methods for Inhibiting BMP” (THE BRIGHAM AND WOMAN'S HOSPITAL, INC., priority 2014, published 2017).
Read-outs that look alike come from different tables or passages of the source.

What was measured:
Assay type in all cases: biochemical
[1] = target: T1, PRKD2 (Homo sapiens, UniProt Q9BZL6); experiment: Kinome profiling PRKD2; settings: for inhibition at 0.1 µM: 100 nM
T1 sequence (Q9BZL6 1-878): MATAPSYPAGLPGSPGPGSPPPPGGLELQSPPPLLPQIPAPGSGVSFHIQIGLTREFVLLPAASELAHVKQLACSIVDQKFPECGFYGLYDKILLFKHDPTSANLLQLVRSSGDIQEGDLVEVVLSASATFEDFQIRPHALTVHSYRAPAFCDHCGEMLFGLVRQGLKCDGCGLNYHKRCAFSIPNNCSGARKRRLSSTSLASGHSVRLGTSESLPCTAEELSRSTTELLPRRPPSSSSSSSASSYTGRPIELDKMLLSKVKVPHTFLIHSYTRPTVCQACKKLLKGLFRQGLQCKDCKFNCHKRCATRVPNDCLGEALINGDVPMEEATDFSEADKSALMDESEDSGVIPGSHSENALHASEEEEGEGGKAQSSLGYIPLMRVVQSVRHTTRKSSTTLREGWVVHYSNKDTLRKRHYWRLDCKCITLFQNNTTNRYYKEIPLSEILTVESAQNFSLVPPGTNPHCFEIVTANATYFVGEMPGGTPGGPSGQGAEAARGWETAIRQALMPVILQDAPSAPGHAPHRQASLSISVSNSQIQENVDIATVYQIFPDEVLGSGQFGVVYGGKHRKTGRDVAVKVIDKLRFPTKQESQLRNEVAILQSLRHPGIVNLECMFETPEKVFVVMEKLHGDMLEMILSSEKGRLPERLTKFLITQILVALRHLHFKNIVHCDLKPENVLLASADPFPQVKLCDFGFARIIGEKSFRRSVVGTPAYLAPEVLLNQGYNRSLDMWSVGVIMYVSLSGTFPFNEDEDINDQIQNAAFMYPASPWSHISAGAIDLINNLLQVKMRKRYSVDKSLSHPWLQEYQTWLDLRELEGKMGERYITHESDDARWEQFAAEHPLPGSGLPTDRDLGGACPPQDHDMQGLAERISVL
Description: (§1) . The kinome-wide selectivity was determined following the methods previously reported by Mohedas et al., ACS Chem Biol 2013, 8, 1291-1302 and Sanvitale et al., PLoS One 2013, 8, e62721.

[2] = target: ALK (Homo sapiens, UniProt Q9UM73); experiment: Kinome profiling ALK; settings: read-out: Inhibitory activity ALK; for inhibition at 0.1 µM: 100 nM
Sequence of ALK (Q9UM73 19-1620): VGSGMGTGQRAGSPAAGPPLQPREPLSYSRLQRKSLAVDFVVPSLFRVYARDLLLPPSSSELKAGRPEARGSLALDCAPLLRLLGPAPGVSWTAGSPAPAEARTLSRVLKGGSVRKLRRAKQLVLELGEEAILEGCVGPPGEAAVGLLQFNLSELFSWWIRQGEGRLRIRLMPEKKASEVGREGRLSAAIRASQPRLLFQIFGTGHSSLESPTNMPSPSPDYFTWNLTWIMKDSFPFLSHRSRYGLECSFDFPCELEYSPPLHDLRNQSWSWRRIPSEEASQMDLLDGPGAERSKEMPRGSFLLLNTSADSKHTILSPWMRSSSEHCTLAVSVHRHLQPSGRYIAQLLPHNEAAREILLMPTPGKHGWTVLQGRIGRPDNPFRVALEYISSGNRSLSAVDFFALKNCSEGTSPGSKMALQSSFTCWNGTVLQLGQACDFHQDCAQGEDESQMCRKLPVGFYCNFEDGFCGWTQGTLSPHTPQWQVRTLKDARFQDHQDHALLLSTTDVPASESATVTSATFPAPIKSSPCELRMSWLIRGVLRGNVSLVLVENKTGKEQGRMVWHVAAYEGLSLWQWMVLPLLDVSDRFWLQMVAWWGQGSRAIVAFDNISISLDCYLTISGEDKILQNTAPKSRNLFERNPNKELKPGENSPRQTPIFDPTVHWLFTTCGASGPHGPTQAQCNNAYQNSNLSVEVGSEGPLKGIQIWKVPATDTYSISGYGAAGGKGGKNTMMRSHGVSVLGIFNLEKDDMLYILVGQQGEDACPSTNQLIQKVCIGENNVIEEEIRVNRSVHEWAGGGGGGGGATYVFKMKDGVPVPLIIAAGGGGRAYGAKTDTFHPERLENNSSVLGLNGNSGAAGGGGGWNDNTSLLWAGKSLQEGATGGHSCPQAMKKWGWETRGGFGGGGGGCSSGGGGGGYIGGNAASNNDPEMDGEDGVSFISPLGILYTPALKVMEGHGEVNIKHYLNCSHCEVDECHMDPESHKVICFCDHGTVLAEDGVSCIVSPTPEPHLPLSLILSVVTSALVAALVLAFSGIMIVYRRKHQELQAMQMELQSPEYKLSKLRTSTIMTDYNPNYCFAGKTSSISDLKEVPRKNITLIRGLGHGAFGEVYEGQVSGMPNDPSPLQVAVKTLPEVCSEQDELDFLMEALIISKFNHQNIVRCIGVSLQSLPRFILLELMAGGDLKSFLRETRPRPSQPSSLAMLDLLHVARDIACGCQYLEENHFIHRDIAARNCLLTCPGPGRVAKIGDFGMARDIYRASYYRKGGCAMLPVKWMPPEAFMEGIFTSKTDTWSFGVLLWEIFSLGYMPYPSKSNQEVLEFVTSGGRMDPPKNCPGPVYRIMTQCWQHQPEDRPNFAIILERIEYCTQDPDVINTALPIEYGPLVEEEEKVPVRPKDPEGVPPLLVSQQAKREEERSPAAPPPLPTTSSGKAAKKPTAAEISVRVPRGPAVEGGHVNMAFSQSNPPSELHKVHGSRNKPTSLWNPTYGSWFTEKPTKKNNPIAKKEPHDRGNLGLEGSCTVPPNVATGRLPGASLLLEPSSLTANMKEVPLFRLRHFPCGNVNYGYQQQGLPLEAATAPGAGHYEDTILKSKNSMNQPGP
Description: as §1

[3] = target: MARK1 (Homo sapiens, UniProt Q9P0L2); experiment: Kinome profiling MARK1; settings: read-out: Inhibitory activity MARK1; for inhibition at 0.1 µM: 100 nM
Sequence of MARK1 (Q9P0L2 whole entry): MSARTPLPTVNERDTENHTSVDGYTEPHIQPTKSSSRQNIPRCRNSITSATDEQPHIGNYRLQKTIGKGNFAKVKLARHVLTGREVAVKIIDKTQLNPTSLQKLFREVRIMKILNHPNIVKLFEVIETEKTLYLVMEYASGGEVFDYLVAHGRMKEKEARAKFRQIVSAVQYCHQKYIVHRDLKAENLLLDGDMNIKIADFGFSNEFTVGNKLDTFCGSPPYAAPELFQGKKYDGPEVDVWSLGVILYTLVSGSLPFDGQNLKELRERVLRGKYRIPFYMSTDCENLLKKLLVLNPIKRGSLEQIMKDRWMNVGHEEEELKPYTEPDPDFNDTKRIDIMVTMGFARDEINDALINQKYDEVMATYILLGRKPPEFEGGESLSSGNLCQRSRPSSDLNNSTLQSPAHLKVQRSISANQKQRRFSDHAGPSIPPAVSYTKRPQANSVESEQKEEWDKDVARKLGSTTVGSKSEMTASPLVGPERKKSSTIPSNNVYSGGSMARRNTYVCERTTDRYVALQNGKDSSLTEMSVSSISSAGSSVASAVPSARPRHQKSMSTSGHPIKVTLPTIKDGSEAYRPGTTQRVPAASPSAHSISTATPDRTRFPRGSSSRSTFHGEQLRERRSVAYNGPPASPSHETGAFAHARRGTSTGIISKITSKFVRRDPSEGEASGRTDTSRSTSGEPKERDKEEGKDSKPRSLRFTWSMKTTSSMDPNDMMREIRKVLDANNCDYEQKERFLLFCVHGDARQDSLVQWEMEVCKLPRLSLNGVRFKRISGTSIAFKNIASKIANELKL
Description: as §1

[4] = target: T2, EPHB3 (Homo sapiens, UniProt P54753); experiment: Kinome profiling EPHB3; settings: read-out: Inhibitory activity EPHB3; for inhibition at 0.1 µM: 100 nM
T2 sequence (P54753 34-998): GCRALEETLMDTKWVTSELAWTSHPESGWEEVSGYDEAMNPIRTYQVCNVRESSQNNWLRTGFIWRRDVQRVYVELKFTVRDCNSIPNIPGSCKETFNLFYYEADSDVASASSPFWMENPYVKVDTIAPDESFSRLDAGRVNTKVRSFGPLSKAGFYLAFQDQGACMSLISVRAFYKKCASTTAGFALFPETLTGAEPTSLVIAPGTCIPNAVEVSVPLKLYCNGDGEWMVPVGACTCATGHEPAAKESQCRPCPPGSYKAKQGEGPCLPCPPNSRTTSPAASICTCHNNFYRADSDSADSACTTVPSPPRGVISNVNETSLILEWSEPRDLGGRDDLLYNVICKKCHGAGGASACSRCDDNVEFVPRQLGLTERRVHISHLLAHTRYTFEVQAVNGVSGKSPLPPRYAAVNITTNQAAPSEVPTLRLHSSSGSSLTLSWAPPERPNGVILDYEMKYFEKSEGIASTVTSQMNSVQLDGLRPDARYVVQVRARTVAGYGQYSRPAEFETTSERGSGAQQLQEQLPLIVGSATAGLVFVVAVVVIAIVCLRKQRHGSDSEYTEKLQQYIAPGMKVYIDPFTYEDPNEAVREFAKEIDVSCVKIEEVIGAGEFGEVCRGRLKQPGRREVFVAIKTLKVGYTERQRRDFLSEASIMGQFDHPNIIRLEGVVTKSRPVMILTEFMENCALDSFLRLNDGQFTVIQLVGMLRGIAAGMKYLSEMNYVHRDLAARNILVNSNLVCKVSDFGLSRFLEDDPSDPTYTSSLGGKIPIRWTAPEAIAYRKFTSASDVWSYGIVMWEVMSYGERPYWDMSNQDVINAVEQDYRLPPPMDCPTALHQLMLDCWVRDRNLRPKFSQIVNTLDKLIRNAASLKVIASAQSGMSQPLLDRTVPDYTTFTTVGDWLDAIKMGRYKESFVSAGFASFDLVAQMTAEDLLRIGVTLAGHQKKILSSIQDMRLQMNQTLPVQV
Description: as §1

[5] = target: FLT-1 (Homo sapiens, UniProt P17948); experiment: Kinome profiling FLT-1; settings: read-out: Inhibitory activity FLT-1; for inhibition at 0.1 µM: 100 nM
Sequence of FLT-1 (P17948 27-1338): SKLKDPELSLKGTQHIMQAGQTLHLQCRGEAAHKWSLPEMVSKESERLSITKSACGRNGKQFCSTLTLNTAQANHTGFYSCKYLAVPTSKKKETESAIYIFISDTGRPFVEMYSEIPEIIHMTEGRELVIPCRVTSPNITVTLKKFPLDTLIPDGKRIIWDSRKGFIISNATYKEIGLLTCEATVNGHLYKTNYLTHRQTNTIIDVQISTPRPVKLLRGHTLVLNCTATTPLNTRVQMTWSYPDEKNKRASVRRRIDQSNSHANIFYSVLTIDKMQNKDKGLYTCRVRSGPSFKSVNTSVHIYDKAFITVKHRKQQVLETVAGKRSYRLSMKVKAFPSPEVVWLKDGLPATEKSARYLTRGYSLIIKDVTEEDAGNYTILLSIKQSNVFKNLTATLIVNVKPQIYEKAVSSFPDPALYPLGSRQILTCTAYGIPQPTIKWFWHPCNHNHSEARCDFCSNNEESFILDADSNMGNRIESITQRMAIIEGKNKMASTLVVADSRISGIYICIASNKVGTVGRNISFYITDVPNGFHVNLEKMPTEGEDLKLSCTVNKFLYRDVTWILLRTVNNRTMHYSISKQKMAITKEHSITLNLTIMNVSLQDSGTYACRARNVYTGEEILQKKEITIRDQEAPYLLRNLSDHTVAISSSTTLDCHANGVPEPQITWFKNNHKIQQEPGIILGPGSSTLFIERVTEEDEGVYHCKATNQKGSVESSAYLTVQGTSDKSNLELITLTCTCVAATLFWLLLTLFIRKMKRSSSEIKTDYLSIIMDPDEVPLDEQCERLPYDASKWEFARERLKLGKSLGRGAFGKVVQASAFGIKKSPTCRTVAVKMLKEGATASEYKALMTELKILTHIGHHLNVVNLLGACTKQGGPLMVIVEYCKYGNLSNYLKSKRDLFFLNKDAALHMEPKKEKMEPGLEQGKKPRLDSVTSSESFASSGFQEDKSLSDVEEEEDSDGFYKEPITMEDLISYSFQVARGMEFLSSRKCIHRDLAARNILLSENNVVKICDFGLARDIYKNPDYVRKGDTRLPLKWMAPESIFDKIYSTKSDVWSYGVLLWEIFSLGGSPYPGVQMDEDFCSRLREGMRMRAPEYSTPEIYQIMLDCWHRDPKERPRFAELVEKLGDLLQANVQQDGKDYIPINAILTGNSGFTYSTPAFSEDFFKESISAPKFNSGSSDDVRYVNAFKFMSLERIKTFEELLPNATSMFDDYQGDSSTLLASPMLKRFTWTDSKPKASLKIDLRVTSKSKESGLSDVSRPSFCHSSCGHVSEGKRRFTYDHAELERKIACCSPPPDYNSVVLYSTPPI
Description: as §1

[6] = target: ERB-B2 (Homo sapiens, UniProt P04626); experiment: Kinome profiling ERB-B2; settings: read-out: Inhibitory activity ERB-B2; for inhibition at 0.1 µM: 100 nM
Sequence of ERB-B2 (P04626 23-1255): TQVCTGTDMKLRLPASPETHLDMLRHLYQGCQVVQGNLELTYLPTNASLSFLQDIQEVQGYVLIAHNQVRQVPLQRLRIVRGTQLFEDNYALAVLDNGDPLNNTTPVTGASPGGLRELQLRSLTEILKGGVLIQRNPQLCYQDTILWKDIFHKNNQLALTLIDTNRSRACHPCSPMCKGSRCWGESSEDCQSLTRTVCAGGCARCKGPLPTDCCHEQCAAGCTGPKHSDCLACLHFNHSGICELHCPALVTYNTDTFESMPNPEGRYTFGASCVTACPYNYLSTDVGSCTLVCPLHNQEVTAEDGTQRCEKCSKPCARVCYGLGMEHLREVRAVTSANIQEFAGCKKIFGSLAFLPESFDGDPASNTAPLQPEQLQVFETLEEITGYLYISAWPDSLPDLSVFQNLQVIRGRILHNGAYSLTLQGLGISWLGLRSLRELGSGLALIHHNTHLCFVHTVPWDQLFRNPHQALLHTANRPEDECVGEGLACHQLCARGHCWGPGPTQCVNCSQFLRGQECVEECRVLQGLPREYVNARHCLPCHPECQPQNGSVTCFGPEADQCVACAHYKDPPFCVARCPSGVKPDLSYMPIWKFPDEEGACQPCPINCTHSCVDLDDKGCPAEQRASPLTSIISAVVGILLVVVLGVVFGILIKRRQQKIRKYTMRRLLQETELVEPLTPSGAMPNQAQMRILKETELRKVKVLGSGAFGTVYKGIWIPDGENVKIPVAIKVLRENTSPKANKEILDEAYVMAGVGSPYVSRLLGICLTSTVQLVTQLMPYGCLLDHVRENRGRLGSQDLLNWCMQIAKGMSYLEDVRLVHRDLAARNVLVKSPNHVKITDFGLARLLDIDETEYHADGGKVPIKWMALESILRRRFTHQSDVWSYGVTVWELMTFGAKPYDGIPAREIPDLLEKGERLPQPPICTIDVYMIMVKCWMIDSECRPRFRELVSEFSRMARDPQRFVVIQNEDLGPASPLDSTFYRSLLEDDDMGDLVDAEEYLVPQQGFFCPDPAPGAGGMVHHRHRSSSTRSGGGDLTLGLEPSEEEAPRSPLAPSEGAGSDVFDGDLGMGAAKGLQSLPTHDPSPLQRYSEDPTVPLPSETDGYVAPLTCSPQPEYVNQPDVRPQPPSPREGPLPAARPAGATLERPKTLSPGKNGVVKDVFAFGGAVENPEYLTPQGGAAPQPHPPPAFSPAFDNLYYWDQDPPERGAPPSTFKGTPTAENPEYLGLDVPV
Description: as §1

[7] = read-out: Inhibitory activity PRKD2
[8] = Table 4, read-out: Inhibitory Activity PRKD2

Q: With `COc1cc(-c2cc(-c3ccc(N4CCNCC4)cc3)cnc2N)cc(OC)c1OC` [Compound 15, 5-(4-(piperazin-1-yl)phenyl)-3-(3,4,5-trimethoxyphenyl)pyridin-2-amine] as the compound, how does the inhibition at 0.1 µM [1, 7] read?
A: 12%

Q: What about the inhibition at 1 µM [1, 7] of the same compound?
A: 54%

Q: And the inhibition at 0.1 µM [2]?
A: 6%

Q: And the inhibition at 1 µM [2]?
A: 36%

Q: What about the inhibition at 0.1 µM [3] of the same compound?
A: 3%

Q: What about the inhibition at 1 µM [3] of the same compound?
A: 31%

Q: And the inhibition at 0.1 µM [4]?
A: 5%

Q: What about the inhibition at 1 µM [4] of the same compound?
A: 7%

Q: And the inhibition at 0.1 µM [5]?
A: 3%

Q: And the inhibition at 1 µM [5]?
A: 5%

Q: And the inhibition at 0.1 µM [6]?
A: 0%

Q: What about the inhibition at 1 µM [6] of the same compound?
A: 5%

Q: What does the source list for `COc1cc(-c2cc(-c3ccc(N4CCNCC4)cc3)cnc2C)cc(OC)c1OC` [Compound 10, 1-(4-(6-methyl-5-(3,4,5-trimethoxyphenyl)pyridin-3-yl)phenyl)piperazine]?
A: inhibition at 0.1 µM [1, 8]: 16%; inhibition at 0.1 µM [1, 7]: 16%; inhibition at 1 µM [1, 8]: 57%; inhibition at 1 µM [1, 7]: 57%; inhibition at 0.1 µM [2]: 2%; inhibition at 1 µM [2]: 7%; inhibition at 0.1 µM [3]: 0%; inhibition at 1 µM [3]: 2%; inhibition at 0.1 µM [4]: 1%; inhibition at 1 µM [4]: 1%; inhibition at 0.1 µM [5]: 8%; inhibition at 1 µM [5]: 16%; inhibition at 0.1 µM [6]: 0%; inhibition at 1 µM [6]: 3%
